# In PubChem BioAssay (NCI):
#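 Briefly, cells in 96-well plates were exposed to five compound concentrations for 48 h, and endpoints were estimated by linear interpolation. TGI: total growth inhibition.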
# Tests used:
# Test in all cases: NCI tumour cell line growth inhibition, 48 h
# [1] = system: PC-3 prostate
# [2] = system: M14 melanoma
# [3] = system: SK-MEL-28 melanoma
# [4] = system: MALME-3M melanoma
# [5] = system: HOP-62 NSCLC
# [6] = system: SN12C renal
# [7] = system: T-47D breast
# [8] = system: SF-268 CNS
# [9] = system: HCT-15 colon
# [10] = system: TK-10 renal
# [11] = system: IGROV1 ovarian
# [12] = system: HCC-2998 colon
# [13] = system: HT29 colon
# [14] = system: A549 NSCLC
# [15] = system: OVCAR-8 ovarian
# [16] = system: UACC-62 melanoma
# [17] = system: OVCAR-5 ovarian
# [18] = system: A498 renal
# [19] = system: MCF7 breast
# [20] = system: SF-539 CNS
# [21] = system: SK-MEL-2 melanoma
# [22] = system: DU-145 prostate
# [23] = system: EKVX NSCLC
# [24] = system: SR leukemia
# [25] = system: CCRF-CEM leukemia
# [26] = system: SW-620 colon
# [27] = system: UO-31 renal
# [28] = system: MOLT-4 leukemia
# [29] = system: MDA-N
# [30] = system: RXF 393 renal
# [31] = system: 786-0 renal
# [32] = system: KM12 colon
# [33] = system: U251 CNS
# [34] = system: MDA-MB-231 breast
# [35] = system: UACC-257 melanoma
# [36] = system: SK-OV-3 ovarian
# [37] = system: NCI-H460 lung
# [38] = system: OVCAR-3 ovarian
# [39] = system: CAKI-1 renal
# [40] = system: COLO 205 colon
# [41] = system: K-562 leukemia
# [42] = system: NCI/ADR-RES ovarian
# [43] = system: RPMI-8226 leukemia
# [44] = system: HCT-116 colon
# [45] = system: ACHN renal
# [46] = system: MDA-MB-435
# [47] = system: SNB-75 CNS
# [48] = system: HL-60(TB) leukemia
# [49] = system: BT-549 breast
# [50] = system: SK-MEL-5 melanoma
# [51] = system: SNB-19 CNS
# [52] = system: LOX IMVI melanoma
# [53] = system: NCI-H522 lung
# [54] = system: SF-295 CNS
# [55] = system: OVCAR-4 ovarian
# [56] = system: NCI-H226 lung
# [57] = system: NCI-H23 lung
smiles,measurement,setting,value
Cc1cc2c(s1)C(N)CC2=O (stereo unspecified),TGI,[1],> 100 µM
same,TGI,[2],> 100 µM
same,TGI,[3],> 100 µM
same,TGI,[4],> 100 µM
same,TGI,[5],> 100 µM
same,TGI,[6],> 100 µM
same,TGI,[7],> 100 µM
same,TGI,[8],> 100 µM
same,TGI,[9],> 100 µM
same,TGI,[10],> 100 µM
same,TGI,[11],> 100 µM
same,TGI,[12],> 100 µM
same,TGI,[13],> 100 µM
same,TGI,[14],> 100 µM
same,TGI,[15],> 100 µM
same,TGI,[16],> 100 µM
same,TGI,[17],> 100 µM
same,TGI,[18],> 100 µM
same,TGI,[19],> 100 µM
same,TGI,[20],> 100 µM
same,TGI,[21],> 100 µM
same,TGI,[22],> 100 µM
same,TGI,[23],> 100 µM
same,TGI,[24],> 100 µM
same,TGI,[25],> 100 µM
same,TGI,[26],> 100 µM
same,TGI,[27],> 100 µM
same,TGI,[28],> 100 µM
same,TGI,[29],> 100 µM
same,TGI,[30],> 100 µM
same,TGI,[31],> 100 µM
same,TGI,[32],> 100 µM
same,TGI,[33],> 100 µM
same,TGI,[34],> 100 µM
same,TGI,[35],> 100 µM
same,TGI,[36],> 100 µM
same,TGI,[37],> 100 µM
same,TGI,[38],> 100 µM
same,TGI,[39],> 100 µM
same,TGI,[40],> 100 µM
same,TGI,[41],> 100 µM
same,TGI,[42],> 100 µM
same,TGI,[43],> 100 µM
same,TGI,[44],> 100 µM
same,TGI,[45],> 100 µM
same,TGI,[46],> 100 µM
same,TGI,[47],> 100 µM
same,TGI,[48],> 100 µM
same,TGI,[49],> 100 µM
same,TGI,[50],> 100 µM
same,TGI,[51],> 100 µM
CC(C)(C)OC(=O)NCCc1ccc(N)cc1,TGI,[52],> 100 µM
same,TGI,[1],> 100 µM
same,TGI,[2],> 100 µM
same,TGI,[3],> 100 µM
same,TGI,[4],> 100 µM
same,TGI,[5],> 100 µM
same,TGI,[53],> 100 µM
same,TGI,[7],> 100 µM
same,TGI,[8],> 100 µM
same,TGI,[9],> 100 µM
same,TGI,[10],> 100 µM
same,TGI,[11],> 100 µM
same,TGI,[12],> 100 µM
same,TGI,[13],> 100 µM
same,TGI,[14],> 100 µM
same,TGI,[15],> 100 µM
same,TGI,[16],> 100 µM
same,TGI,[19],> 100 µM
same,TGI,[22],> 100 µM
same,TGI,[23],> 100 µM
same,TGI,[24],> 100 µM
same,TGI,[25],> 100 µM
same,TGI,[26],> 100 µM
same,TGI,[27],> 100 µM
same,TGI,[28],> 100 µM
same,TGI,[54],> 100 µM
same,TGI,[29],> 100 µM
same,TGI,[33],> 100 µM
same,TGI,[34],> 100 µM
same,TGI,[35],> 100 µM
same,TGI,[37],> 100 µM
same,TGI,[38],> 100 µM
same,TGI,[40],> 100 µM
same,TGI,[41],> 100 µM
same,TGI,[55],> 100 µM
same,TGI,[42],> 100 µM
same,TGI,[43],> 100 µM
same,TGI,[44],> 100 µM
same,TGI,[45],> 100 µM
same,TGI,[46],> 100 µM
same,TGI,[48],> 100 µM
same,TGI,[50],> 100 µM
same,TGI,[51],> 100 µM
NC(=S)N/N=C1\CCCCc2ccccc21,TGI,[56],> 10 µM
same,TGI,[1],> 10 µM
same,TGI,[2],> 10 µM
same,TGI,[4],> 10 µM
same,TGI,[5],> 10 µM
same,TGI,[6],> 10 µM
same,TGI,[53],> 10 µM
same,TGI,[7],> 10 µM
same,TGI,[8],> 10 µM
same,TGI,[9],> 10 µM
same,TGI,[10],> 10 µM
same,TGI,[12],> 10 µM
same,TGI,[13],> 10 µM
same,TGI,[14],> 10 µM
same,TGI,[15],> 10 µM
same,TGI,[17],> 10 µM
same,TGI,[19],> 10 µM
same,TGI,[21],> 10 µM
same,TGI,[22],> 10 µM
same,TGI,[23],> 10 µM
same,TGI,[24],> 10 µM
same,TGI,[25],> 10 µM
same,TGI,[26],> 10 µM
same,TGI,[27],> 10 µM
same,TGI,[28],> 10 µM
same,TGI,[54],> 10 µM
same,TGI,[29],> 10 µM
same,TGI,[30],> 10 µM
same,TGI,[31],> 10 µM
same,TGI,[32],> 10 µM
same,TGI,[33],> 10 µM
same,TGI,[35],> 10 µM
same,TGI,[37],> 10 µM
same,TGI,[38],> 10 µM
same,TGI,[39],> 10 µM
same,TGI,[40],> 10 µM
same,TGI,[41],> 10 µM
same,TGI,[57],> 10 µM
same,TGI,[55],> 10 µM
same,TGI,[42],> 10 µM
same,TGI,[43],> 10 µM
same,TGI,[44],> 10 µM
same,TGI,[45],> 10 µM
same,TGI,[46],> 10 µM
same,TGI,[48],> 10 µM
same,TGI,[49],> 10 µM
same,TGI,[51],> 10 µM
